The record followed here is paper PMC10208040, “Computational docking and in vitro analysis identifies novel arylidene analogue FPMXY-14 against renal cancer cells by attenuating Akt” (Oncology Research, 2021).

This experiment addresses T1, Akt.
T1 construct: gene AKT1
The experiment in a line: Z'-LYTE fluorescence-based coupled-enzyme kinase assay. Type of experiment: biochemical.

As for `Cc1ccc(C)c2c1CC(=Cc1ccc(C(C)C)cc1)C2=O` [FPMXY-14, 2-(4-isopropyl-benzylidene)-4,7-dimethyl-indan-1-one], 148 nM corresponded to half-maximal inhibition (IC50).
